The values below come from US20220081421A1, “ANTIBACTERIAL COMPOUNDS” (Forge Therapeutics, Inc., priority 2018, published 2022).

≈ marks a conversion by molar mass, not a printed value. Where two headings read alike, the source gives them in different places.

Assay [1] concerns E. coli. Nature of the assay: MIC by broth microdilution (CLSI), E. coli. The class given is cell-based. Conditions: Escherichia coli, read-out: E. coli MIC. In outline: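 CLSI broth microdilution in cation-adjusted Mueller-Hinton broth with 2-fold serial drug dilutions; final inoculum 3×10^5–7×10^5 CFU/mL. Incubated 18-24 h at 35° C in ambient air; MIC is the lowest concentration preventing visible growth (OD600 nm<0.05).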

Assay [2] deals with K. pneumoniae. Put plainly: MIC by broth microdilution (CLSI), K. pneumoniae. The note with it: Klebsiella pneumoniae, read-out: K. pneumoniae MIC. Type of assay: cell-based. Here is the method:
Minimal inhibitory concentrations (MIC) were determined by the broth microdilution method in accordance with the Clinical and Laboratory Standards Institute (CLSI) guidelines. In brief, organism suspensions were adjusted to a 0.5 McFarland standard to yield a final inoculum between 3×10^5 and 7×10^5 colony-forming units (CFU)/mL. Drug dilutions and inocula were made in sterile, cation adjusted Mueller-Hinton Broth (Beckton Dickinson). An inoculum volume of 100 μL was added to wells containing 100 μL of broth with 2-fold serial dilutions of drug. All inoculated microdilution trays were incubated in ambient air at 35° C. for 18-24 h. Following incubation, the lowest concentration of the drug that prevented visible growth (OD600 nm<0.05) was recorded as the MIC. Performance of the assay was monitored by the use of laboratory quality-control strains and levofloxacin, a compound with a defined MIC spectrum, in accordance with CLSI guidelines.
On the technique in general: Broth dilution looks for growth in wells or tubes with falling amounts of substance.

[3] abbreviates: broth microdilution, cation adjusted Mueller-Hinton Broth, 35° C., 18-24 h.

Usually MIC stands for the lowest concentration found to suppress growth. As to `CC(Cc1ccc(C#Cc2ccc(CN3CCOCC3)cc2)cc1)c1nc[nH]c(=O)c1O` (stereo not drawn) [Compound 104, 5-hydroxy-6-(1-(4-((4-(morpholinomethyl)phenyl)ethynyl)phenyl)propan-2-yl)pyrimidin-4(3H)-one], the MIC in assay [1] (setting [3]) and in assay [2] (setting [3]) was 1 to 8 µg/mL (≈ 2.33 to 18.6 µM) throughout.

`C=C(Cc1ccc(C#Cc2ccc(CN3CCOCC3)cc2)cc1)c1nc[nH]c(=O)c1O` [Compound 105, 5-hydroxy-6-(3-(4-((4-(morpholinomethyl)phenyl)ethynyl)phenyl)prop-1-en-2-yl)pyrimidin-4(3H)-one]: the minimum inhibitory concentration (MIC) in assay [1] (setting [3]) and in assay [2] (setting [3]) was 1 to 8 µg/mL (≈ 2.34 to 18.7 µM) throughout.

On to `N#CCC(Cc1ccc(C#Cc2ccc(CN3CCOCC3)cc2)cc1)c1nc[nH]c(=O)c1O` (stereo not drawn) [Compound 106, 3-(5-hydroxy-6-oxo-1,6-dihydropyrimidin-4-yl)-4-(4-((4-(morpholinomethyl)phenyl)ethynyl)phenyl)butanenitrile], for which the minimum inhibitory concentration (MIC) in assay [1] (setting [3]) and in assay [2] (setting [3]) was 1 to 8 µg/mL (≈ 2.2 to 17.6 µM) in each case.

For the compound `N#CCC(Cc1ccc(C#Cc2ccc(CN[C@H]3CCOC3)cc2)cc1)c1nc[nH]c(=O)c1O` (stereo partly drawn) [Compound 107, 3-(5-hydroxy-6-oxo-1,6-dihydropyrimidin-4-yl)-4-(4-((4-((((S)-tetrahydrofuran-3-yl)amino)methyl)phenyl)ethynyl)phenyl)butanenitrile], the figures for the MIC in assay [1] (setting [3]) and in assay [2] (setting [3]) were 1 to 8 µg/mL (≈ 2.2 to 17.6 µM) and 8 to 32 µg/mL (≈ 17.6 to 70.4 µM), respectively.

With `O=c1[nH]cnc(CNc2ccc(C#Cc3ccc(CN4CCOCC4)cc3)cc2)c1O` [Compound 108, 5-hydroxy-6-(((4-((4-(morpholinomethyl)phenyl)ethynyl)phenyl)amino)methyl) pyrimidin-4(3H)-one], the MIC in assay [1] (setting [3]) is 1 to 8 µg/mL (≈ 2.4 to 19.2 µM); in assay [2] (setting [3]), more than 32 µg/mL.

For the compound `O=c1ccoc(CNc2ccc(C#Cc3ccc(CN4CCOCC4)cc3)cc2)c1O` [Compound 109, 3-hydroxy-2-(((4-((4-(morpholinomethyl)phenyl)ethynyl)phenyl)amino)methyl)-4H-pyran-4-one], the MIC in assay [1] (setting [3]) lay within 1 to 8 µg/mL (≈ 2.4 to 19.2 µM); in assay [2] (setting [3]), 8 to 32 µg/mL (≈ 19.2 to 76.8 µM).

Regarding `C/C(=N\O)C(Cc1ccc(C#Cc2ccc(CN3CCOCC3)cc2)cc1)c1ncnc(O)c1O` (stereo not drawn) [Compound 111, (E)-3-(5,6-dihydroxypyrimidin-4-yl)-4-(4-((4-(morpholinomethyl)phenyl)ethynyl)phenyl)butan-2-one oxime], the minimal inhibitory concentration (MIC) in assay [1] (setting [3]) was 8 to 32 µg/mL (≈ 16.9 to 67.7 µM); in assay [2] (setting [3]), more than 32 µg/mL.

As to `O=c1[nH]cnc(C(CCl)Cc2ccc(C#Cc3ccc(CN4CCOCC4)cc3)cc2)c1O` (stereo not drawn) [Compound 113, 6-(1-chloro-3-(4-((4-(morpholinomethyl)phenyl)ethynyl)phenyl)propan-2-yl)-5-hydroxypyrimidin-4(3H)-one], the minimum inhibitory concentration (MIC) in assay [1] (setting [3]) and in assay [2] (setting [3]) was 8 to 32 µg/mL (≈ 17.2 to 69 µM) throughout.

Turning to `O=C(OC1CCSC1)C(Cc1ccc(C#Cc2ccc(CN3CCOCC3)cc2)cc1)c1nc[nH]c(=O)c1O` (stereo not drawn) [Compound 115, tetrahydrothiophen-3-yl 2-(5-hydroxy-6-oxo-1,6-dihydropyrimidin-4-yl)-3-(4-((4-(morpholinomethyl)phenyl)ethynyl)phenyl)propanoate], the figures for the MIC in assay [1] (setting [3]) and in assay [2] (setting [3]) were 8 to 32 µg/mL (≈ 14.7 to 58.6 µM) and more than 32 µg/mL, respectively.

Turning to `CO/N=C(\C)C(Cc1ccc(C#Cc2ccc(CN3CCOCC3)cc2)cc1)c1ncnc(O)c1O` (stereo not drawn) [Compound 116, (E)-3-(5,6-dihydroxypyrimidin-4-yl)-4-(4-((4-(morpholinomethyl)phenyl)ethynyl)phenyl)butan-2-one O-methyl oxime], the MIC in assay [1] (setting [3]) is 8 to 32 µg/mL (≈ 16.4 to 65.8 µM); in assay [2] (setting [3]) it was more than 32 µg/mL.

For `O=c1ccoc(CCc2ccc(C#Cc3ccc(CN4CCOCC4)cc3)cc2)c1O` [Compound 117, 3-hydroxy-2-(4-((4-(morpholinomethyl)phenyl)ethynyl)phenethyl)-4H-pyran-4-one], the minimum inhibitory concentration (MIC) is 8 to 32 µg/mL (≈ 19.3 to 77 µM) in assay [1] (setting [3]) and more than 32 µg/mL in assay [2] (setting [3]).

Turning to `CC(=O)NCC(Cc1ccc(C#Cc2ccc(CN3CCOCC3)cc2)cc1)c1c(O)cn[nH]c1=O` (stereo not drawn) [Compound 131, N-(2-(5-hydroxy-3-oxo-2,3-dihydropyridazin-4-yl)-3-(4-((4-(morpholinomethyl)phenyl)ethynyl)phenyl)propyl)acetamide], the minimal inhibitory concentration (MIC) in assay [1] (setting [3]) and in assay [2] (setting [3]) was more than 32 µg/mL in each case.

Regarding `Cn1cnc(C(CNC(=O)CF)Cc2ccc(C#Cc3ccc(CN4CCOCC4)cc3)cc2)c(O)c1=O` (stereo not drawn) [Compound 132, 2-fluoro-N-(2-(5-hydroxy-1-methyl-6-oxo-1,6-dihydropyrimidin-4-yl)-3-(4-((4-(morpholinomethyl)phenyl)ethynyl)phenyl)propyl)acetamide], the minimal inhibitory concentration (MIC) in assay [1] and in assay [2] was more than 32 µg/mL in each case.

For `OCC(Cc1nccc(O)c1O)c1ccc(C#Cc2ccc(CN3CCOCC3)cc2)cc1` (stereo not drawn) [Compound 134, 2-(3-hydroxy-2-(4-((4-(morpholinomethyl)phenyl)ethynyl)phenyl)propyl)pyridine-3,4-diol], the minimal inhibitory concentration (MIC) in assay [1] (setting [3]) and in assay [2] (setting [3]) was more than 32 µg/mL each time.

Consider `O=c1[nH]cnc(C2(Cc3ccc(C#Cc4ccc(CN5CCOCC5)cc4)cc3)CC2)c1O` [Compound 135, 5-hydroxy-6-(1-(4-((4-(morpholinomethyl)phenyl)ethynyl)benzyl)cyclopropyl) pyrimidin-4(3H)-one], for which the minimum inhibitory concentration (MIC) in assay [1] (setting [3]) is 8 to 32 µg/mL (≈ 18.1 to 72.5 µM); in assay [2] (setting [3]), more than 32 µg/mL.

In the case of `O=c1[nH]cnc(C2(Cc3ccc(C#Cc4ccc(CNC5CCOC5)cc4)cc3)CC2)c1O` (stereo not drawn) [Compound 136, 5-hydroxy-6-(1-(4-((4-(((tetrahydrofuran-3-yl)amino)methyl)phenyl)ethynyl)benzyl)cyclopropyl)pyrimidin-4(3H)-one], the figures for the MIC in assay [1] (setting [3]) and in assay [2] (setting [3]) were 1 to 8 µg/mL (≈ 2.26 to 18.1 µM) and 8 to 32 µg/mL (≈ 18.1 to 72.5 µM), respectively.

Regarding `O=c1ccoc(CC(CO)c2ccc(C#Cc3ccc(CN4CCOCC4)cc3)cc2)c1O` (stereo not drawn) [Compound 137, 3-hydroxy-2-(3-hydroxy-2-(4-((4-(morpholinomethyl)phenyl)ethynyl)phenyl)propyl)-4H-pyran-4-one], the MIC in assay [1] (setting [3]) and in assay [2] (setting [3]) was 1 to 8 µg/mL (≈ 2.24 to 18 µM) throughout.

Consider `O=c1cccc(CC(CO)c2ccc(C#Cc3ccc(CN4CCOCC4)cc3)cc2)n1O` (stereo not drawn) [Compound 138, 1-hydroxy-6-(3-hydroxy-2-(4-((4-(morpholinomethyl)phenyl)ethynyl)phenyl)propyl)pyridin-2(1H)-one], for which the MIC in assay [1] (setting [3]) and in assay [2] (setting [3]) was 8 to 32 µg/mL (≈ 18 to 72 µM) in each case.
